Results on four compounds are retold here after patent publication US10189862B2, “Phenothiazine-pyridine compounds and uses thereof” (The Chinese University of Hong Kong, priority 2016, dated 2019).

In series [1] the test system is E. coli. As to the kind of experiment: Dark toxicity of photosensitizers on bacteria, CFU count. The settings on record: absence of light, 6 h. The format is cell-based, Escherichia coli. As to the method:
(§1) Bacterial growth and culture: Gram-positive S. aureus or Gram-negative E. coli were grown on trypticase soy agar (TSA) for 24 h, then a colony was transferred into tryptica soy broth (TSB) and grown at 37° C. overnight at a 200 rpm speeds of shaking-up using a shaker incubator. The nutrient medium was centrifuged for 5 min at 8000 rpm and diluted by sterile 0.85% saline (pH 7.5) to concentrations of 10^8 CFU/ml, which was used for further incubation with photosensitizers in the following experiments.
(§2) Dark toxicities of the photosensitizers on bacteria: Bacterial suspensions were incubated with photosensitizers at various concentrations at 37° C. in the dark for 6 h. After that, 100 uL of cell suspension were spread on the TSA in 10-fold serial dilutions. Colony forming unit (CFU) was counted after incubation for 24 h at 37° C.

The test system of series [2] is HT29 cell line. As to the kind of experiment: Photocytotoxicity (PDT), MTT assay. Format: cell-based. As to conditions: Homo sapiens, HT-29, light or radiation study, read-out: IC50 PDT. As to the method: (§3) Cell lines and culture conditions: A549, HT29, MCF-7, MDA-MB-231 cell lines were maintained in RPMI1640 supplemented with fetal bovine serum (10%) and penicillin-streptomycin solution (1%), and WI38 cells were maintained in DMEM supplemented with fetal bovine serum (10%) and penicillin-streptomycin solution (1%). Approximately 1×10^4 (for A549, HT29, MCF-7, MDA-MB-231) or 1.5×10^4 (for WI38) cells per well were seeded in 96-well plate and incubated overnight light at 37° C. in a humidified atmosphere with 5% CO2.
(§4) Photocytotoxicity: Cells were incubated with different concentrations of photosensitive drug for 1 h in the dark, then the medium in the well was sucked by a syringe, and washed by PBS. Then a solution of new medium was added, and illuminated by light. After irradiation, the cells were incubated under dark at 37° C. for another 24 h, and the cell viabilities were determined by MTT assay.
For orientation: Formazan colour is commonly taken as a measure of viable cells.

For series [3], the system named is MCF7 cell line. As to the kind of experiment: Photocytotoxicity (PDT), MTT assay. The settings on record: Homo sapiens, MCF7, light or radiation study, read-out: IC50 PDT. The format is cell-based. On the procedure: as §3, §4
For series [4], the system named is A549 cell line. As to the kind of experiment: Photocytotoxicity (PDT), MTT assay. Format: cell-based. As to conditions: Homo sapiens, A549, light or radiation study, read-out: IC50 PDT. As to the method:
as §3, §4

The subject of series [5] is normal fibroblast WI38 cells. Kind of series: Dark toxicity, MTT assay. The format is cell-based. As to conditions: Homo sapiens, WI-38, 24 h, read-out: IC50 dark toxicity. As to the method: as §3
(§5) Dark toxicity: Cells were incubated with different concentrations of photosensitive drug for 24 h in dark, and the cell viabilities were determined by MTT assay
The IC50 values (50% inhibitory concentration) of the prepared phenothiazine-pyridine compounds 8, 14, 15, 16, 17, 18, 19, 20, 21, 22, 23, and 24 to normal fibroblast cell line WI38 were measured by MTT assay.

Series [6] is described as follows: UV-Visible and fluorescence spectrometry. Format: physicochemical. The settings on record: for λmax(nm)in EtOH: UV-Vis absorption maximum in EtOH; for Log ε: UV-Vis in EtOH; for λEm (nm): fluorescence emission, excited at 610 nm. As to the method:
(§6) All of the new prepared phenothiazine-pyridine compounds are deep blue solid, the basic physiochemical properties are measured by UV-Visible and fluorescence spectrometry. […] The maximum absorption is about 650 nm in ethanol, and they are varied based on the compound structure. The fluorescence emission is about 680 nm when excited at 610 nm. All of these compounds have relatively high quantum yield, they are promising diagnostic and imaging agents. The lipophilicity is determined by the partition coefficient (log P), which can be obtained by measuring the UV-Vis absorption of the compound in phosphate buffer saline (PBS) before and after the partition equilibrium between n-octanol and PBS solution, and then calculated following the equation of: Log p=Log [(Abefore/Aafter)−1]. Wherein Abefore and Aafter are the absorption values in PBS solution before and after partition.

For series [7], the system named is HT29 cell line. As to the kind of experiment: Dark toxicity, MTT assay. The format is cell-based. The settings on record: Homo sapiens, HT-29, 24 h, read-out: IC50 DK. On the procedure: as §3, §5
Series [8] has as its system MCF7 cell line. As to the kind of experiment: Dark toxicity, MTT assay. The format is cell-based. As to conditions: Homo sapiens, MCF7, 24 h, read-out: IC50 DK. On the procedure:
as §3, §5

The subject of series [9] is A549 cell line. As to the kind of experiment: Dark toxicity, MTT assay. The format is cell-based. As to conditions: Homo sapiens, A549, 24 h, read-out: IC50 DK. On the procedure: as §3, §5
For series [10], the system named is S. aureus. As to the kind of experiment: Dark toxicity of photosensitizers on bacteria, CFU count. The format is cell-based, Staphylococcus aureus. As to conditions: absence of light, 6 h. On the procedure:
as §1, §2

The nature of series [11]: Partition coefficient (log P) between n-octanol and PBS by UV-Vis absorption. The format is physicochemical. On the procedure: as §6

The term IC50 denotes the concentration at which inhibition is half-maximal. The logP is the decadic logarithm of the partition coefficient of the neutral form, usually between octanol and water. A lower logP goes with a more hydrophilic compound. As for `CCCNc1c(I)c2[s+]c3cc(N(CC)CC)ccc3nc2c2ccc(C)nc12` [Compound 23, 9-(diethylamino)-6-iodo-3-methyl-5-(propylamino)pyrido[3,2-a]phenothiazin-7-ium chloride], the dark toxicity entry in series [1] and in [10] was “essentially non-toxic” each time. The IC50 turned out to be 71 nM in series [2]; 120 nM in [3]; 680 nM in series [4]; 5200 nM in series [5]; 2000 nM in series [7]; 900 nM in series [8]. In [9], the IC50 turned out to be 3300 nM. Further, the “λmax(nm)in EtOH” value in [6] was 633 nm. In addition, in series [6], the “Log ε” value amounted to 4.87. For the same compound, in series [6], the “λEm (nm)” value is reported as 666 nm. In series [11], this compound had a logP of 1.48.

With `CCCCN(CCCC)c1ccc2nc3c(cc(NCCC)c4nc(C)ccc43)[s+]c2c1` [Compound 24, 9-(dibutylamino)-3-methyl-5-(propylamino)pyrido[3,2-a]phenothiazin-7-ium chloride], the dark toxicity result in [1] and in series [10] was “essentially non-toxic” each time. For the same compound, the IC50 in series [2] was 74 nM; in series [3] it was 77 nM; in series [4] it was 100 nM; in series [5], greater than 10000 nM; in series [7] it was 840 nM; in series [8], 850 nM. The IC50 in series [9] was determined as 850 nM. In series [6], the “λmax(nm)in EtOH” value is on record as 654 nm. In [6], the “Log ε” value is on record as 4.86. Also, the “λEm (nm)” value in series [6] stood at 688 nm. In addition, the logP in series [11] was determined as 3.4.

In the case of `CCN(CC)c1ccc2nc3c(cc(N)c4nc(C)ccc43)[s+]c2c1` [Compound 8, 5-amino-9-(diethylamino)-3-methylpyrido[3,2-a]phenothiazin-7-ium chloride], the dark toxicity entry in series [1] and in series [10] was “essentially non-toxic” throughout. Moreover, the IC50 in series [2] is 210 nM; in series [3], 500 nM; in [4] it was 1800 nM; in series [5], greater than 10000 nM; in [7], 4600 nM; in [8], 1100 nM. The IC50 in series [9] is 6500 nM. Besides, the “λmax(nm)in EtOH” value in series [6] came to 658 nm. Further, the “Log ε” value in series [6] amounted to 4.93. In addition, the “λEm (nm)” value in series [6] is on record as 680 nm. In [11], this compound displayed a logP of 0.97.

As to `CCN(CC)c1ccc2nc3c(cc(NCCCNC)c4nc(C)ccc43)[s+]c2c1` [Compound 22, 9-(diethylamino)-3-methyl-5-(3-(methylamino)propylamino) pyrido[3,2-a]phenothiazin-7-ium chloride], the IC50 is 510 nM in series [2]; 3100 nM in series [3]; 11900 nM in [4]; greater than 10000 nM in series [5]; 9500 nM in series [7]; 13200 nM in series [8]. Besides, the IC50 in series [9] is 19800 nM. Further, in series [6], the “λmax(nm)in EtOH” value was found to be 658 nm. Moreover, in series [6], the “Log ε” value amounted to 4.81. In addition, the “λEm (nm)” value in series [6] was determined as 686 nm. Further, in [11], the logP was found to be 0.65.
